The structures appear in SMILES notation.

This assay deals with TRKA (Homo sapiens (Human), UniProt P04629). The experiment in a line: Isolated TRK enzyme assay (HTRF KinEASE-TK), TRKA. Type of assay: biochemical. The settings on record: read-out: Trka enzyme (IC50). (In TR-FRET formats the signal depends on donor and acceptor labels being close together.)
Chain of TRKA (P04629 441-796): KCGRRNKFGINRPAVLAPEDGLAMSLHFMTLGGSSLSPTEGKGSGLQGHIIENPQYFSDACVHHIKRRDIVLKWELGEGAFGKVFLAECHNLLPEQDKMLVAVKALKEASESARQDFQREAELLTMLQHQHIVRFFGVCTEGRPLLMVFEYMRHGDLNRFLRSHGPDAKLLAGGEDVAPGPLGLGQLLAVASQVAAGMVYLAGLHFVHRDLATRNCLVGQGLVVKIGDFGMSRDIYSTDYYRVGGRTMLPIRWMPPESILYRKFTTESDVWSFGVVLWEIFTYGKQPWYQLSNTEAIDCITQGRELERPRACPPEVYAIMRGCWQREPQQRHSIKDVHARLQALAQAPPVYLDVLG
The IC50 is the concentration needed to halve the response being measured. As for `CC(C)n1cc(C(=O)c2cncc(NC(=O)Cn3ccc(C4CC4)n3)c2)c2cncnc21` [Example 90, 2-(3-cyclopropyl-1H-pyrazol-1-yl)-N-{5-[(7-isopropyl-7H-pyrrolo[2,3-d]pyrimidin-5-yl)carbonyl]pyridin-3-yl}acetamide], the IC50 amounted to 0.00881 µM. With `CC(C)n1cc(C(=O)c2cncc(NC(=O)Cc3cncc(OC4CC4)c3)c2)c2cncnc21` [Example 91, 2-[5-(cyclopropyloxy)pyridin-3-yl]-N-{5-[(7-isopropyl-7H-pyrrolo[2,3-d]pyrimidin-5-yl)carbonyl]pyridin-3-yl}acetamide] the figure was 1.03 µM; with `CC(C)n1cc(C(=O)c2cncc(NC(=O)Cc3ccc4c(c3)CCO4)c2)c2cncnc21` [Example 92, 2-(2,3-dihydro-1-benzofuran-5-yl)-N-{5-[(7-isopropyl-7H-pyrrolo[2,3-d]pyrimidin-5-yl)carbonyl]pyridin-3-yl}acetamide], 0.0415 µM; with `CC(C)n1cc(C(=O)c2cncc(NC(=O)Cn3cc4ccccc4n3)c2)c2cncnc21` [Example 93, 2-(2H-indazol-2-yl)-N-{5-[(7-isopropyl-7H-pyrrolo[2,3-d]pyrimidin-5-yl)carbonyl]pyridin-3-yl}acetamide], 0.0124 µM.

In the case of `CC(C)n1cc(C(=O)c2cncc(NC(=O)Cn3cc4cc(F)ccc4n3)c2)c2cncnc21` [Example 94, 2-(5-fluoro-2H-indazol-2-yl)-N-{5-[(7-isopropyl-7H-pyrrolo[2,3-d]pyrimidin-5-yl)carbonyl]pyridin-3-yl}acetamide], the half-maximal inhibitory concentration (IC50) was determined as 0.0548 µM. To `CC(C)n1cc(C(=O)c2cncc(NC(=O)Cn3ncc4cc(F)ccc43)c2)c2cncnc21` [Example 95, 2-(5-fluoro-1H-indazol-1-yl)-N-{5-[(7-isopropyl-7H-pyrrolo[2,3-d]pyrimidin-5-yl)carbonyl]pyridin-3-yl}acetamide] belongs 0.00395 µM. To `Cc1cc(C(F)(F)F)nn1CC(=O)Nc1cncc(C(=O)c2cn(C(C)C)c3ncncc23)c1` [Example 96, N-{5-[(7-isopropyl-7H-pyrrolo[2,3-d]pyrimidin-5-yl)carbonyl]pyridin-3-yl}-2-[5-methyl-3-(trifluoromethyl)-1H-pyrazol-1-yl]acetamide] belongs 0.00545 µM; to `CC(C)n1cc(C(=O)c2cncc(NC(=O)Cn3ccc(C(F)(F)F)n3)c2)c2cncnc21` [Example 97, N-{5-[(7-isopropyl-7H-pyrrolo[2,3-d]pyrimidin-5-yl)carbonyl]pyridin-3-yl}-2-[3-(trifluoromethyl)-1H-pyrazol-1-yl]acetamide], 0.00486 µM. As for `CC(C)n1cc(C(=O)c2cncc(NC(=O)Cc3ccc(Cl)cn3)c2)c2cncnc21` [Example 98, 2-(5-chloropyridin-2-yl)-N-{5-[(7-isopropyl-7H-pyrrolo[2,3-d]pyrimidin-5-yl)carbonyl]pyridin-3-yl}acetamide], the IC50 was 0.00516 µM.

As to `CC(C)n1cc(C(=O)c2cncc(NC(=O)Cc3ccc4cccnc4c3)c2)c2cncnc21` [Example 100, N-{5-[(7-isopropyl-7H-pyrrolo[2,3-d]pyrimidin-5-yl)carbonyl]pyridin-3-yl}-2-quinolin-7-ylacetamide], the IC50 stood at 0.0256 µM. As for `CC(C)n1cc(C(=O)c2cncc(NC(=O)Cn3cc4cccc(F)c4n3)c2)c2cncnc21` [Example 101, 2-(7-fluoro-2H-indazol-2-yl)-N-{5-[(7-isopropyl-7H-pyrrolo[2,3-d]pyrimidin-5-yl)carbonyl]pyridin-3-yl}acetamide], the concentration for half-maximal inhibition (IC50) amounted to 0.204 µM. As to `CC(C)n1cc(C(=O)c2cncc(NC(=O)Cn3ncc4cccnc43)c2)c2cncnc21` [Example 102, N-{5-[(7-isopropyl-7H-pyrrolo[2,3-d]pyrimidin-5-yl)carbonyl]pyridin-3-yl}-2-(1H-pyrazolo[3,4-b]pyridin-1-yl)acetamide], the IC50 turned out to be 0.0429 µM. With `CC(C)n1cc(C(=O)c2cncc(NC(=O)Cn3ncc4ccccc43)c2)c2cncnc21` [Example 103, 2-(1H-indazol-1-yl)-N-{5-[(7-isopropyl-7H-pyrrolo[2,3-d]pyrimidin-5-yl)carbonyl]pyridin-3-yl}acetamide] the figure was 0.0417 µM; with `Cc1cc(C(C)C)nn1CC(=O)Nc1cncc(C(=O)c2cn(C(C)C)c3ncncc23)c1` [Example 104, 2-(3-isopropyl-5-methyl-1H-pyrazol-1-yl)-N-{5-[(7-isopropyl-7H-pyrrolo[2,3-d]pyrimidin-5-yl)carbonyl]pyridin-3-yl}acetamide], 0.02 µM.

For `CC(C)c1cn(CC(=O)Nc2cncc(C(=O)c3cn(C(C)C)c4ncncc34)c2)nn1` [Example 105, N-{5-[(7-isopropyl-7H-pyrrolo[2,3-d]pyrimidin-5-yl)carbonyl]pyridin-3-yl}-2-(4-isopropyl-1H-1,2,3-triazol-1-yl)acetamide], the IC50 is 0.0256 µM. To `CC(C)n1cc(C(=O)c2cncc(NC(=O)Cn3cc(C(F)(F)F)nn3)c2)c2cncnc21` [Example 106, N-{5-[(7-isopropyl-7H-pyrrolo[2,3-d]pyrimidin-5-yl)carbonyl]pyridin-3-yl}-2-[4-(trifluoromethyl)-1H-1,2,3-triazol-1-yl]acetamide] belongs 0.0148 µM; to `CC(C)n1cc(C(=O)c2cncc(NC(=O)Cn3ncc4cccc(F)c43)c2)c2cncnc21` [Example 107, 2-(7-fluoro-1H-indazol-1-yl)-N-{5-[(7-isopropyl-7H-pyrrolo[2,3-d]pyrimidin-5-yl)carbonyl]pyridin-3-yl}acetamide], 0.0123 µM; to `CC(C)n1cc(C(=O)c2cncc(NC(=O)Cn3nc4ccccc4n3)c2)c2cncnc21` [Example 108, 2-(2H-benzotriazol-2-yl)-N-{5-[(7-isopropyl-7H-pyrrolo[2,3-d]pyrimidin-5-yl)carbonyl]pyridin-3-yl}acetamide], 0.00763 µM.

On to `Cc1[nH]c2c(F)cccc2c1CC(=O)Nc1cncc(C(=O)c2cn(C(C)C)c3ncncc23)c1` [Example 109, 2-(7-fluoro-2-methyl-1H-indol-3-yl)-N-{5-[(7-isopropyl-7H-pyrrolo[2,3-d]pyrimidin-5-yl)carbonyl]pyridin-3-yl}acetamide], for which the IC50 amounted to 0.0651 µM. Consider `Cc1[nH]c2ccc(Cl)cc2c1CC(=O)Nc1cncc(C(=O)c2cn(C(C)C)c3ncncc23)c1` [Example 110, 2-(5-chloro-2-methyl-1H-indol-3-yl)-N-{5-[(7-isopropyl-7H-pyrrolo[2,3-d]pyrimidin-5-yl)carbonyl]pyridin-3-yl}acetamide], for which the IC50 is 0.0365 µM. Regarding `CC(C)n1cc(C(=O)c2cncc(NC(=O)Cn3ccc4ccccc43)c2)c2cncnc21` [Example 111, 2-(1H-indol-1-yl)-N-{5-[(7-isopropyl-7H-pyrrolo[2,3-d]pyrimidin-5-yl)carbonyl]pyridin-3-yl}acetamide], the IC50 is 0.0462 µM. As to `CC(C)n1ncc(CC(=O)Nc2cncc(C(=O)c3cn(C(C)C)c4ncncc34)c2)c1C(F)(F)F` [Example 112, N-{5-[(7-isopropyl-7H-pyrrolo[2,3-d]pyrimidin-5-yl)carbonyl]pyridin-3-yl}-2-[1-isopropyl-5-(trifluoromethyl)-1H-pyrazol-4-yl]acetamide], the concentration for half-maximal inhibition (IC50) amounted to 0.0578 µM. With `Cc1ccn(CC(=O)Nc2cncc(C(=O)c3cn(C(C)C)c4ncncc34)c2)n1` [Example 113, N-{5-[(7-isopropyl-7H-pyrrolo[2,3-d]pyrimidin-5-yl)carbonyl]pyridin-3-yl}-2-(3-methyl-1H-pyrazol-1-yl)acetamide] the figure was 0.3 µM; with `CC(C)n1cc(C(=O)c2cncc(NC(=O)Cn3cccn3)c2)c2cncnc21` [Example 114, N-{5-[(7-isopropyl-7H-pyrrolo[2,3-d]pyrimidin-5-yl)carbonyl]pyridin-3-yl}-2-(1H-pyrazol-1-yl)acetamide], 0.976 µM. To `Cc1cc(C)n(CC(=O)Nc2cncc(C(=O)c3cn(C(C)C)c4ncncc34)c2)n1` [Example 115, 2-(3,5-dimethyl-1H-pyrazol-1-yl)-N-{5-[(7-isopropyl-7H-pyrrolo[2,3-d]pyrimidin-5-yl)carbonyl]pyridin-3-yl}acetamide] belongs 0.102 µM; to `Cc1[nH]c2ccccc2c1CC(=O)Nc1cncc(C(=O)c2cn(C(C)C)c3ncncc23)c1` [Example 116, N-{5-[(7-isopropyl-7H-pyrrolo[2,3-d]pyrimidin-5-yl)carbonyl]pyridin-3-yl}-2-(2-methyl-1H-indol-3-yl)acetamide], 0.103 µM; to `COc1ccc2[nH]cc(CC(=O)Nc3cncc(C(=O)c4cn(C(C)C)c5ncncc45)c3)c2c1` [Example 117, N-{5-[(7-isopropyl-7H-pyrrolo[2,3-d]pyrimidin-5-yl)carbonyl]pyridin-3-yl}-2-(5-methoxy-1H-indol-3-yl)acetamide], 0.0684 µM.

For the molecule `CC(C)n1cc(C(=O)c2cncc(NC(=O)Cc3cccnc3)c2)c2cncnc21` [Example 118, N-{5-[(7-isopropyl-7H-pyrrolo[2,3-d]pyrimidin-5-yl)carbonyl]pyridin-3-yl}-2-pyridin-3-ylacetamide], the half-maximal inhibitory concentration (IC50) was found to be 2.55 µM. To `CC(C)n1cc(C(=O)c2cncc(NC(=O)Cn3nnc4cc(Cl)ccc43)c2)c2cncnc21` [Example 119, 2-(5-chloro-1H-benzotriazol-1-yl)-N-{5-[(7-isopropyl-7H-pyrrolo[2,3-d]pyrimidin-5-yl)carbonyl]pyridin-3-yl}acetamide] belongs 0.233 µM.

For `CC(C)n1cc(C(=O)c2cncc(NC(=O)Cn3ccc(-c4cccs4)n3)c2)c2cncnc21` [Example 120, N-{5-[(7-isopropyl-7H-pyrrolo[2,3-d]pyrimidin-5-yl)carbonyl]pyridin-3-yl}-2-[3-(2-thienyl)-1H-pyrazol-1-yl]acetamide], the IC50 amounted to 0.053 µM.

For `Cc1ccn2cc(CC(=O)Nc3cncc(C(=O)c4cn(C(C)C)c5ncncc45)c3)nc2n1` [Example 121, N-{5-[(7-isopropyl-7H-pyrrolo[2,3-d]pyrimidin-5-yl)carbonyl]pyridin-3-yl}-2-(7-methylimidazo[1,2-a]pyrimidin-2-yl)acetamide], the half-inhibitory concentration (IC50) was 5.2 µM. To `Cc1nc(C)c2ncn(CC(=O)Nc3cncc(C(=O)c4cn(C(C)C)c5ncncc45)c3)c2n1` [Example 122, 2-(2,6-dimethyl-9H-purin-9-yl)-N-{5-[(7-isopropyl-7H-pyrrolo[2,3-d]pyrimidin-5-yl)carbonyl]pyridin-3-yl}acetamide] belongs 5.84 µM.

Source of the values: patent US8846698B2, “Pyrrolo[2,3-d]pyrimidine tropomysin-related kinase inhibitors” (Pfizer Limited, priority 2011, dated 2014).
